Measured values from publication PMC4558628 (International Journal of Clinical Pharmacology and …, 2014).
Values joined by “and” are separate entries in the source; they are usually repeats but may differ in a detail not shown here. Equal entries are not always repeated. Where two headings read alike, the source gives them in different places.

How the values were obtained:
[1] = Study 1 safety: treatment-emergent adverse events; details: drug administered alone; n = 14
Text: (§2) For each study, the participants were enrolled at different individual study centers in the US. Study 1 (rifampin study, NCT01395927) was a single-center, open-label, fixed-sequence study to evaluate the effects of steady-state rifampin on the single-dose PK of canagliflozin. The study consisted of a screening period of 20 days (from day –21 to ‒2), a 14-day open-label period (from day –1 to 13), followed by an end-of-study period (5 – 7 days) consisting of follow-up assessments. Participants received canagliflozin 300 mg (tablet) q.d. on day 1 and rifampin 600 mg q.d. (as two 300 mg capsules) on days 4 – 9. On day 10, canagliflozin (300 mg) plus rifampin (600 mg) was administered, followed by rifampin alone (600 mg) administration on days 11 – 12. The study drugs were administered under a fasted state.
(§3) Safety and tolerability were monitored throughout all three studies by evaluation of the incidence and the type of treatment-emergent adverse events (TEAEs), and change from baseline in: clinical laboratory tests (including hematology, serum chemistry, urinalysis, and urine uric acid analysis (study 2 only)), physical examination of all body systems except genitalia and breast (by a study physician), body weight, height, and BMI, vital signs (including systolic and diastolic blood pressure, heart rate, and body temperature), and 12-lead electrocardiographys (ECGs) (including cardiac rhythm, waveform morphology, and interval duration).
(§4) Results of the clinical laboratory parameters and vital signs were summarized using descriptive statistics.

[2] = parameters: method as in PMID 21189429, PMID 6643696; details: under fed conditions; cited from earlier work
[3] = Study 1: effect of steady-state rifampin on single-dose pharmacokinetics of canagliflozin, M7 and M5; details: day 10 (with canagliflozin, fasted) vs day 9 (alone, fed)
Text: as §2
(§5) Study 1: Venous blood (4 mL each) samples for the determination of canagliflozin, M7, and M5 plasma concentrations were collected pre-dose, and up to 72 hours post-dose (at 0.5, 1, 1.5, 2, 3, 4, 6, 8, 10, 12, 16, 24, 48, and 72 hours) on days 1 and 10. Urine samples for the determination of canagliflozin, M7, and M5 in urine were collected over the intervals of 0 – 4 hours, 4 – 12 hours, 12 – 24 hours, 24 – 48 hours, and 48 – 72 hours on days 1 and 10. Venous blood samples (2 mL each) for the determination of rifampin plasma concentrations were collected 2 hours after rifampin administration on days 9 and 10.
(§6) Blood samples for canagliflozin, M7 and M5, rifampin and probenecid were centrifuged (10 minutes at 1,300 rpm), and the obtained plasma was stored at or below –20 °C. […] Urine samples were collected in polyethylene containers for the PK evaluation of canagliflozin, M7, and M5. Two aliquots (3 mL in study 1 and 2 mL in study 2) of urine sample were transferred into polyethylene tubes and were stored at or below –20 °C.
(§7) The EDTA plasma samples were analyzed to determine the concentrations of canagliflozin with a validated [29, 30] liquid chromatography coupled to tandem mass spectrometry/mass spectrometry (LC-MS/MS) method (Frontage, Shanghai, China). A ^13C6 analogue of canagliflozin was used as internal standard (IS). Briefly, the sample was processed using a liquid-liquid extraction with tert-butyl methyl ether. The LC phase used a 5 cm × 4.6 mm column packed with XBridge C18 (Waters, Milford, MA, USA) with a mobile phase of ammonium acetate 0.01M (30%) and methanol (70%), and a flow rate of 1.2 mL/min. Quantification was achieved by MS/MS detection with an API4000, equipped with TurboIonSpray (TIS) interface (AB Sciex, Framingham, MA, USA), in the positive ion multiple reaction monitoring (MRM) mode. Canagliflozin and IS were monitored at mass transitions m/z 462.1 → 267.0 and m/z 468.1 → 273.0, respectively. The quantitation range was 5.0 – 10,000 ng/mL.
(§8) Plasma (validated) and urine (qualified) concentrations of M7 and M5 were also determined using ^13C6-canagliflozin as IS at Frontage Laboratories (Shanghai) Co., Ltd. Samples underwent protein precipitation, with acetonitrile. The LC-MS/MS quantitation was done with the same equipment as for canagliflozin. The LC phase used a 5 cm × 4.6 mm column packed with XBridge C18 with a mobile phase of ammonium acetate 0.01M (pH 4) and methanol at ratio 40/60 (v/v) at a flow rate of 1.2 mL/min. After 3.5 minutes, the composition was changed to 98% methanol for 1 minute to flush the column. Using positive ion MRM on an API4000, equipped with TIS, both metabolites were measured at mass transition m/z 638.2 → 427. The quantitation range was 5.0 – 10,000 ng/mL for both metabolites in plasma, and 100 – 100,000 ng/mL in urine.
(§9) Pharmacokinetic analyses of plasma and urine concentrations was done by non-compartmental method using validated WinNonlin® software Version 5.2.1 (Pharsight Corporation, Mountain View, CA, USA).

[4] = Study 2: effect of multiple-dose probenecid on steady-state pharmacokinetics of canagliflozin, M7 and M5; assay type: in vivo, human; details: for trough plasma concentration, mean (SD): canagliflozin 300 mg q.d.; for % Ae (dose): cumulative amount excreted into the urine: corrected for molecular weight when necessary; for tmax.ss: median (range)
Experimental: (§1) The study consisted of a 19-day screening period (from day –21 to –3), a 20 day open-label period (from day –2 to 18), followed by an end-of-study period (7 – 10 days). […] Participants received study drugs under fasted state on days 14 and 17. On all other study days, participants received a standardized meal 1 hour after the study drug administration. Diet was standardized in order to stabilize uric acid levels, and participants were advised not to consume highly purine-enriched foods.

[5] = Study 2 safety: treatment-emergent adverse events; assay type: in vivo, human
Experimental: as §1

[6] = Study 3 safety: treatment-emergent adverse events; assay type: in vivo, human
Experimental: (§10) The study consisted of a 3-week screening period (from day –22 to –2), an 11 day open-label period (from day –1 to 10), followed by an end-of-study period consisting of 2 follow-up assessments occurring from 7 to 10 days and again from 14 to 18 days after the last dose of the study drug administration. Canagliflozin 300 mg (tablet) q.d. was administered on days 1 through 8 under fasted state.
as §3

[7] = parameters: method as in PMID 23670707; details: cited from earlier work
[8] = human, in vivo
Experimental: as §10
Study 3: Venous blood (4 mL each) samples for the determination of canagliflozin plasma concentration were collected at pre-dose on days 2, 3, 4, 5, and 6, and at pre-dose and up to 24 hours post-dose (at 0.5, 1, 1.5, 2, 3, 4, 5, 6, 10, 12, 16, and 24 hours) on days 7 and 8.
as §6, §7
Pharmacokinetic analyses of plasma and urine concentrations was done by non-compartmental method using validated WinNonlin® software Version 5.2.1 (Pharsight Corporation, Mountain View, CA, USA). […] The assessed pharmacokinetic parameters of canagliflozin, M7, and M5 in study 2, and of canagliflozin in study 3 were: Cmax during a dosing interval at steady state (Cmax.ss), observed plasma concentration before dosing or at the end of a dosing interval (Ctrough; only for canagliflozin), tmax during a dosing interval at steady state (tmax.ss), and AUC during a dosing interval at steady state (AUCτ.ss). Additionally, M/P ratio (corrected for the differences in molecular weights) for Cmax.ss, AUCτ.ss, Ae during a collection interval (Aet1-t2), %Ae dose, and CLR were calculated for study 2.
A mixed-effects model was fitted to the log-transformed data of AUC or Cmax as dependent variables, treatment (with or without coadministration of the other drug) as a fixed effect, and participant as a random effect. The estimated least-square means and intra-participant variability from the mixed-effect model was used to construct 90% confidence interval (CI) for the difference in means of AUC or Cmax on the log-scale between the two treatments. The limits of the CIs were retransformed using antilogarithms to obtain the 90% CI for the ratio of the geometric mean AUC or Cmax.

[9] = in vivo
Text: as §2, §5, §6, §7, §8, §9

[10] = system: multidrug resistance protein 2 (MRP2); parameters: method as in earlier work; details: in vitro experiments; cited from earlier work
[11] = Safety and tolerability across the three studies; assay type: in vivo, human
Text: as §3, §4

[12] = in vivo; remark: listed apart in the source
Text: as §2, §3, §4

P-gp = system: P-gp; parameters: method as in unpublished data; details: MDR1-expressing MDCK cells; ref unpublished data; cited from earlier work
OATP1B1 = details: in vitro studies; no reference given; cited from earlier work
OAT1 = details: in vitro studies; no reference given; cited from earlier work
OAT3 = details: no reference given; cited from earlier work
P-glycoprotein (P-gp) = system: P-glycoprotein (P-gp); parameters: method as in earlier work; details: in vitro experiments; cited from earlier work
[13] = parameters: method as in PMID 22226086, PMID 22492586; details: canagliflozin 300 mg b.i.d., cited from earlier work
[14] = canagliflozin + probenecid (test), geometric mean, n = 11
[15] = canagliflozin + probenecid vs canagliflozin alone
[16] = canagliflozin + probenecid, arithmetic mean (SD)
[17] = canagliflozin alone (reference), geometric mean, n = 11
[18] = canagliflozin alone, arithmetic mean (SD)
[19] = probenecid coadministration vs canagliflozin alone
[20] = canagliflozin and probenecid coadministration, 1/12

**Q.** With CO[C@H]1/C=C/O[C@@]2(C)Oc3c(C)c(O)c4c(O)c(c(/C=N/N5CCN(C)CC5)c(O)c4c3C2=O)NC(=O)/C(C)=C\C=C\[C@H](C)[C@H](O)[C@@H](C)[C@@H](O)[C@@H](C)[C@H](OC(C)=O)[C@@H]1C [rifampin] as the molecule, how does the “participants with TEAEs” value [1] read?
**A.** 50%

**Q.** What about the “reduction of rifampin absorption” value [2] of the same molecule?
**A.** 30%

**Q.** What about the “increase in plasma rifampin concentration at 2 hours” value [3] of the same molecule?
**A.** 24%

**Q.** Which “AUC∞.ss” value ([4]; canagliflozin 300 mg q.d. + probenecid 500 mg b.i.d. (day 17), arithmetic mean (SD), n = 12) does the source give for Canagliflozin here?
**A.** 26,225 (5261) ng×h/mL

**Q.** And the “AUC∞.ss” value ([4]; canagliflozin 300 mg q.d. alone (day 14), arithmetic mean (SD), n = 12)?
**A.** 21,861 (4290) ng×h/mL

**Q.** And the “trough plasma concentration, mean (SD)” value ([4]; day 13)?
**A.** 381 (110) ng/mL

**Q.** And the “trough plasma concentration, mean (SD)” value ([4]; day 14)?
**A.** 366 (117) ng/mL

**Q.** And the “trough plasma concentration, mean (SD)” value ([4]; day 15)?
**A.** 358 (110) ng/mL

**Q.** What about the “AUC∞.ss” value [4, 14] of the same molecule?
**A.** 26,011.71 ng×h/mL

**Q.** What about the Cmax.ss [4, 14] of the same molecule?
**A.** 3,008.66 ng/mL

**Q.** What about the “AUCτ.ss, estimated ratio (test/reference) of geometric means (90% CI)” value [4, 15] of the same molecule?
**A.** 120.74 (116.37; 125.27) %

**Q.** What about the “AUC∞.ss, estimated ratio (test/reference) of geometric means (90% CI)” value [4, 15] of the same molecule?
**A.** 120.74 (116.37; 125.27) %

**Q.** And the “Cmax.ss, estimated ratio (test/reference) of geometric means (90% CI)” value [4, 15]?
**A.** 113.37 (100.37; 128.06) %

**Q.** What about the “CLR (renal clearance, Ae24/AUC24)” value [4, 16] of the same molecule?
**A.** 0.0569 (0.00944) L/h

**Q.** And the “% Ae (dose): cumulative amount excreted into the urine” value [4, 16]?
**A.** 0.495 (0.136) % dose

**Q.** What about the tmax.ss ([4]; canagliflozin + probenecid) of the same molecule?
**A.** 1.67 (1.42 – 5.92) h

**Q.** What about the “AUC∞.ss” value [4, 17] of the same molecule?
**A.** 21,543.95 ng×h/mL

**Q.** What about the Cmax.ss [4, 17] of the same molecule?
**A.** 2,653.85 ng/mL

**Q.** What about the “CLR (renal clearance, Ae24/AUC24)” value [4, 18] of the same molecule?
**A.** 0.0868 (0.0297) L/h

**Q.** What about the “% Ae (dose): cumulative amount excreted into the urine” value [4, 18] of the same molecule?
**A.** 0.609 (0.217) % dose

**Q.** What about the tmax.ss ([4]; canagliflozin alone) of the same molecule?
**A.** 1.92 (1.42– 3.92) h

**Q.** What about the Cmax.ss ([4]; plasma, canagliflozin 300 mg q.d. + probenecid 500 mg b.i.d. (day 17), arithmetic mean (SD), n = 12) of the same molecule?
**A.** 3,105 (680) ng/mL

**Q.** What about the Cmax.ss ([4]; plasma, canagliflozin 300 mg q.d. alone (day 14), arithmetic mean (SD), n = 12) of the same molecule?
**A.** 2,699 (814) ng/mL

**Q.** And the “decrease in mean CLR” value [4, 19]?
**A.** ~ 34%

**Q.** And the “increase in AUCτ.ss (systemic exposure)” value [4, 19]?
**A.** 21%

**Q.** And the “increase in Cmax.ss” value [4, 19]?
**A.** 13% and ~ 13%

**Q.** What about the participants with headache ([5]; canagliflozin alone, 2/14) of the same molecule?
**A.** 14.3%

**Q.** What about the “participants with ≥ 1 TEAE” value ([5]; canagliflozin alone, 4/14) of the same molecule?
**A.** 28.6%

**Q.** And the “participants with abdominal discomfort” value [5, 20]?
**A.** 8.3%

**Q.** And the participants with diarrhea [5, 20]?
**A.** 8.3%

**Q.** What about the participants with headache [5, 20] of the same molecule?
**A.** 8.3%

**Q.** And the “participants with muscle twitching” value [5, 20]?
**A.** 8.3%

**Q.** What about the “participants with musculoskeletal pain” value [5, 20] of the same molecule?
**A.** 8.3%

**Q.** And the participants with pruritis [5, 20]?
**A.** 8.3%

**Q.** And the “participants with urethral pain” value [5, 20]?
**A.** 8.3%

**Q.** And the “participants with ≥ 1 TEAE” value ([5]; canagliflozin and probenecid coadministration, 5/12)?
**A.** 41.7%

**Q.** What about the participants with diarrhea ([6]; canagliflozin alone, 2/18) of the same molecule?
**A.** 11.1%

**Q.** And the “participants with oropharyngeal pain” value ([6]; canagliflozin alone, 2/18)?
**A.** 11.1%

**Q.** And the “participants reporting TEAEs” value ([6]; canagliflozin alone, 6/18)?
**A.** 33.3%

**Q.** And the participants with flushing ([6]; canagliflozin and cyclosporine A coadministration, 15/18)?
**A.** 83.3%

**Q.** And the “participants reporting TEAEs” value ([6]; canagliflozin and cyclosporine A coadministration, 17/18)?
**A.** 94.4%

**Q.** And the “canagliflozin dose excreted in urine as unchanged canagliflozin” value [7]?
**A.** less than 1%

**Q.** What about the AUCτ.ss [8] of the same molecule?
**A.** 22,243.50 ng×h/mL

**Q.** And the Cmax.ss [8]?
**A.** 2,864.03 ng/mL

**Q.** What about the tmax.ss [8] of the same molecule?
**A.** 2.00 (1.00 – 3.00) h

**Q.** What about the AUCτ.ss ([8]; 300 mg) of the same molecule?
**A.** 22,158 (4203) ng×h/mL

**Q.** What about the Cmax.ss ([8]; 300 mg) of the same molecule?
**A.** 2,887 (735) ng/mL

**Q.** And the “AUC∞” value ([9]; human)?
**A.** 20,938.95 ng×h/mL

**Q.** And the “CLR (renal clearance, Ae0–72/AUC0–72h)” value ([9]; human)?
**A.** 0.0849 (0.0318) L/h

**Q.** What about the Cmax ([9]; human) of the same molecule?
**A.** 2,358.29 ng/mL

**Q.** And the t1/2 ([9]; human)?
**A.** 12.9 (2.42) h

**Q.** What about the tmax ([9]; human) of the same molecule?
**A.** 2.00 (1.00 – 4.00) h

**Q.** What about the “AUC∞” value ([9]; human, 300 mg) of the same molecule?
**A.** 21,695 (6151) ng×h/mL

**Q.** And the Cmax ([9]; human, 300 mg)?
**A.** 2,474 (805) ng/mL

**Q.** What about the “Ae (% dose): cumulative amount excreted into the urine” value [9] of the same molecule?
**A.** 0.578 (0.180) % dose

**Q.** And the “substrate of MRP2” value [10]?
**A.** substrate

**Q.** What about the “changes in clinical laboratory values, vital signs, physical examinations, or ECGs” value ([11]; any of the three studies) of the same molecule?
**A.** No consistent, clinically relevant changes

**Q.** What about the “deaths, serious TEAEs, or discontinuations due to TEAEs” value ([11]; any of the three studies) of the same molecule?
**A.** No deaths, serious TEAEs, or discontinuations due to TEAEs

**Q.** What about the tolerability ([11]; canagliflozin 300 mg coadministered with rifampin, probenecid, and cyclosporine A, healthy participants) of the same molecule?
**A.** generally well-tolerated

**Q.** And the “participants with TEAEs” value [12]?
**A.** 21.4%

**Q.** What about the “participants with abdominal discomfort” value [12] of the same molecule?
**A.** 7.1%

**Q.** And the participants with polyuria [12]?
**A.** 7.1%

**Q.** And the participants with thirst [12]?
**A.** 7.1%

**Q.** What about the P-gp substrate status (P-gp) of the same molecule?
**A.** P-gp substrate

**Q.** And the basal-to-apical/apical-to-basal efflux ratio (P-gp)?
**A.** 2.0

**Q.** What about the “substrate of OATP1B1” value (OATP1B1) of the same molecule?
**A.** not a substrate

**Q.** What about the “substrate of OAT1” value (OAT1) of the same molecule?
**A.** not a substrate

**Q.** And the “substrate of OAT3” value (OAT3)?
**A.** not a substrate

**Q.** And the “substrate of P-glycoprotein (P-gp)” value (P-glycoprotein (P-gp))?
**A.** substrate

**Q.** And the tolerability ([13]; 2-week multiple-dose study and 12-week dose-ranging study in T2DM)?
**A.** well-tolerated

**Q.** And the “plasma AUCτ.ss higher than with the 300 mg q.d. dose” value [13]?
**A.** 93%

**Q.** And the “plasma Cmax.ss higher than with the 300 mg q.d. dose” value [13]?
**A.** 32%
